Source: patent publication US20190315823A1, “SMALL CATIONIC ANTI-BIOFILM AND IDR PEPTIDES” (priority 2013, published 2019)
Ends that are not written are not given here.

Key:
[1] = tested on: human peripheral blood mononuclear cells (MCP-1); experiment: SPOT-synthesized derivative screen: production of chemokine MCP-1; type: cell-based; settings: Table 12, No LPS, human PBMC, peptide at ~18-24 μM; for MCP1: background subtracted 139 (HH2 derivatives), 170 (1018 derivatives), 242 (1002 and hybrid peptides) pg/ml
Method in brief: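 PBMC from heparinized healthy-donor venous blood, Ficoll-separated, cultured at 0.75 to 1×10^6 cells/ml, 37 °C, 5% CO2, under the treatment regimens. MCP-1 in cell-free supernatants measured by capture ELISA.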

[2] = tested on: methicillin resistant Staphylococcus aureus (MRSA) biofilm; settings: approximate peptide concentration […] (around 3 μg/ml); compared to untreated samples
Method in brief: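 Static biofilm assay: 1/100 dilutions of overnight cultures grown in BM2 medium (pH 7, glucose, Casamino Acids) or Luria Broth with peptide added at time zero. After 22–46 h, adherent biofilm was stained with crystal violet and read at 595 nm. Some peptides were also tested on K. pneumoniae under flow in a Bioflux system.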

[3] = tested on: LPS-stimulated human peripheral blood mononuclear cells (IL1-β); type: cell-based; settings: Table 12, cells stimulated with 10 ng/ml LPS; for IL1β Production: LPS alone 1313 (HH2 derivatives), 1927 (1018 derivatives), 2455 (1002 and hybrid peptides) pg/ml

| Substance | Fold increase in MCP1 cf. untreated cells [1] | MCP1 [1] [pg/mL] | % Biofilm inhibition [2] [%] | Fold change in IL1β relative to no peptide LPS stimulated cells [3] | IL1β Production [3] [pg/mL] |
| --- | --- | --- | --- | --- | --- |
| 1018-Q2: single substituted 1018 peptide (VQLIVAVRIWRR-NH2) [Peptide 1018-Q2] | 3.5 | 422 | 52 | 0.10 | 127 |
| 1018-Q3: single substituted 1018 peptide (VRQIVAVRIWRR-NH2) [Peptide 1018-Q3] | 1.0 | -2 | 12 | 1.03 | 1359 |
| 1018-Q4: single substituted 1018 peptide (VRLQVAVRIWRR-NH2) [Peptide 1018-Q4] | 0.4 | -104 | 39 | 0.35 | 458 |
| 1018-Q5: single substituted 1018 peptide (VRLIQAVRIWRR-NH2) [Peptide 1018-Q5] | 0.7 | -54 | 13 | 1.03 | 1354 |
| 1018-Q6: single substituted 1018 peptide (VRLIVQVRIWRR-NH2) [Peptide 1018-Q6] | 0.7 | -54 | 55 | 0.14 | 186 |
| 1018-Q7: single substituted 1018 peptide (VRLIVAQRIWRR-NH2) [Peptide 1018-Q7] | 0.7 | -54 | 28 | 1.04 | 1368 |
| 1018-Q8: single substituted 1018 peptide (VRLIVAVQIWRR-NH2) [Peptide 1018-Q8] | 0.4 | -104 | 51 | 0.10 | 127 |
| 1018-Q9: single substituted 1018 peptide (VRLIVAVRQWRR-NH2) [Peptide 1018-Q9] | 0.8 | -28 | 38 | 1.00 | 1313 |
| 1018-Q10: single substituted 1018 peptide (VRLIVAVRIQRR-NH2) [Peptide 1018-Q10] | 0.7 | -54 | 38 | 0.12 | 154 |
| 1018-Q11: single substituted 1018 peptide (VRLIVAVRIWQR-NH2) [Peptide 1018-Q11] | 11 | 1773 | 51 | 1.24 | 1625 |
| 1018-Q12: single substituted 1018 peptide (VRLIVAVRIWRQ-NH2) [Peptide 1018-Q12] | 0.8 | -28 | 57 | 0.50 | 655 |
| 1018-R1: single substituted 1018 peptide (RRLIVAVRIWRR-NH2) [Peptide 1018-R1] | 5.9 | 832 | 46 | 0.13 | 176 |
| 1018-R3: single substituted 1018 peptide (VRRIVAVRIWRR-NH2) [Peptide 1018-R3] | 3.0 | 349 | 29 | 1.25 | 1636 |
| 1018-R4: single substituted 1018 peptide (VRLRVAVRIWRR-NH2) [Peptide 1018-R4] | 0.6 | -65 | 58 | 0.47 | 615 |
| 1018-R5: single substituted 1018 peptide (VRLIRAVRIWRR-NH2) [Peptide 1018-R5] | 0.8 | -41 | 4 | 1.50 | 1973 |
| 1018-R7: single substituted 1018 peptide (VRLIVARRIWRR-NH2) [Peptide 1018-R7] | 1.9 | 161 | 0 | 1.68 | 2201 |
| 1018-R9: single substituted 1018 peptide (VRLIVAVRRWRR-NH2) [Peptide 1018-R9] | 0.9 | -10 | 59 | 0.24 | 310 |
| 1018-V2: single substituted 1018 peptide (VVLIVAVRIWRR-NH2) [Peptide 1018-V2] | 1.3 | 56 | 67 | 0.12 | 159 |
| 1018-V3: single substituted 1018 peptide (VRVIVAVRIWRR-NH2) [Peptide 1018-V3] | 16 | 2550 | 76 | 0.22 | 295 |
| 1018-V4: single substituted 1018 peptide (VRLVVAVRIWRR-NH2) [Peptide 1018-V4] | 1.2 | 29 | 75 | 0.11 | 144 |
| 1018-V6: single substituted 1018 peptide (VRLIVVVRIWRR-NH2) [Peptide 1018-V6] | 1.6 | 110 | 70 | 0.17 | 226 |
| 1018-V8: single substituted 1018 peptide (VRLIVAVVIWRR-NH2) [Peptide 1018-V8] | 1.2 | 29 | 34 | 0.35 | 463 |
| 1018-V9: single substituted 1018 peptide (VRLIVAVRVWRR-NH2) [Peptide 1018-V9] | 105 | 17711 | 53 | 0.11 | 142 |
| 1018-V10: single substituted 1018 peptide (VRLIVAVRIVRR-NH2) [Peptide 1018-V10] | 1.2 | 29 | 50 | 0.28 | 370 |
